Source: BindingDB's records for doi:10.7270/Q2N58JS6 (University of Pittsburgh, 2007)

Target: Serine/threonine-protein kinase PLK1 (Homo sapiens, UniProt P53350)
Experiment: redox cycling hydrogen peroxide generation, dose response, artefact control for Plk1 PBD inhibitor project, biochemical, 1 mM DTT (AID 936)

Serine/threonine-protein kinase PLK1, sequence (P53350 whole entry): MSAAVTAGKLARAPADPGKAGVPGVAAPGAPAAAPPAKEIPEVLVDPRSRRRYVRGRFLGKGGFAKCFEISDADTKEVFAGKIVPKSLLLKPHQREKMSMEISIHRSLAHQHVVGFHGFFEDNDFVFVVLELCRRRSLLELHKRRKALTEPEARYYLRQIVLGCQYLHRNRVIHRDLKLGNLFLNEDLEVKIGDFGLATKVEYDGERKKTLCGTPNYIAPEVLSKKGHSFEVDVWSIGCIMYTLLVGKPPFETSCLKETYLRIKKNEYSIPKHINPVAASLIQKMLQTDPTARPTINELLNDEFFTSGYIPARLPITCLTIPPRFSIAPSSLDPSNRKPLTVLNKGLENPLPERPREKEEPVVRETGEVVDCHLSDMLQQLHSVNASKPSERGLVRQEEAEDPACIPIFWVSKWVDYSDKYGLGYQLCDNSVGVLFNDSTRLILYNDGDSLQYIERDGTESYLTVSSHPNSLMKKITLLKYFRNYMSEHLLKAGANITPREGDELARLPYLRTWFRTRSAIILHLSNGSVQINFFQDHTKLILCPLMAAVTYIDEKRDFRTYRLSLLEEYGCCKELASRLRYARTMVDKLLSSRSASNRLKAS

Row | SMILES | EC50
1 | COc1ccc(C(C)C)cc1S(=O)(=O)Nc1ccc(Cl)cn1 [MLS000071127] | > 50 µM
2 | O=C1C(=C2C(=O)c3ccccc3C2=O)Nc2ccccc21 [MLS000071738] | > 50 µM
3 | CCC(=O)Nc1ccc(-c2nnc(SCC(=O)Nc3nccs3)n2C)cc1 [MLS000076456] | > 50 µM
4 | CC(C)OCCCNC(=O)c1ccc(NC(=O)C2CCCO2)cc1 (configuration not stated) [MLS000086701] | > 50 µM
5 | CCOCCCNC(=O)CCCOc1ccccc1 [MLS000088375] | > 50 µM
6 | CC(C)=CC(=O)NCCc1ccccc1 [MLS000089152] | > 50 µM
7 | O=C(COc1ccccc1)Nc1ccc(S(=O)(=O)N2CCOCC2)cc1 [MLS000108227] | > 50 µM
8 | CCC(C)c1ccc(NC(=O)C2CC2)cc1 (configuration not stated) [MLS000110184] | > 50 µM
9 | O=C(Nc1nc2ccccc2s1)c1cc2c(s1)-c1ccccc1OC2 [MLS000522634] | > 50 µM
10 | Cn1cc(SCC(=O)Nc2ccc3c(c2)OCCO3)c2ccccc21 [MLS000529783] | > 50 µM
11 | CCC(=O)Nc1ccccc1C(=O)NC1CCCCC1 [MLS000538265] | > 50 µM
12 | Cc1[nH]n2c(=O)cc(-c3ccc([N+](=O)[O-])cc3)nc2c1-c1ccccc1 [MLS000547439] | > 50 µM
13 | CCOc1ccccc1N1CCN(C2=C(NS(=O)(=O)c3cccs3)C(=O)c3ccccc3C2=O)CC1 [MLS000551587] | > 50 µM
14 | O=C(NCCc1ccccc1)/C(=C\c1ccc([N+](=O)[O-])cc1)NC(=O)c1ccccc1 [MLS000575866] | > 50 µM
15 | O=C(NC1(O)C(=O)c2ccccc2C1=O)c1ccccc1 [N-(2-hydroxy-1,3-dioxo-2-indenyl)benzamide] | > 50 µM

Other lines, results leading:

Row | EC50 | SMILES
16 | > 50 µM | CC(=O)N(N=C1Sc2ccccc2C1=O)c1ccccc1C [N-(2-methylphenyl)-N-[(3-oxo-1-benzothiophen-2-ylidene)amino]acetamide]
17 | > 50 µM | CC(=O)N(N=C1Sc2ccccc2C1=O)c1cccc(C)c1 [N-(3-methylphenyl)-N-[(3-oxidanylidene-1-benzothiophen-2-ylidene)amino]ethanamide]
18 | > 50 µM | CC(C)N(Cc1cc2ccccc2[nH]c1=O)C(=O)c1cccnc1 [N-[(2-oxo-1H-quinolin-3-yl)methyl]-N-propan-2-ylpyridine-3-carboxamide]
19 | > 50 µM | CC(=O)N(N=C1Sc2ccccc2C1=O)c1ccccc1 [N-[(Z)-(3-ketobenzothiophen-2-ylidene)amino]-N-phenyl-acetamide]
20 | > 50 µM | Cc1cccc2[nH]c3c(N4CCN(C(=O)c5ccco5)CC4)ncnc3c12 [SMR000148910]
21 | > 50 µM | NC(=O)C1CCN(C2=C(Cl)C(=O)c3ccccc3C2=O)CC1 [SMR000180199]
22 | > 50 µM | COC(=O)c1ccccc1NC1=CC(=NS(=O)(=O)c2cccs2)c2ccccc2C1=O [methyl 2-[[(4E)-1-oxidanylidene-4-thiophen-2-ylsulfonylimino-naphthalen-2-yl]amino]benzoate]
